Experimental data from patent US9045442B2, “Antibacterial compounds and methods of using same” (University of Notre Dame du Lac, priority 2007, dated 2015).

Assays:
[1] = test system: E. faecalis 29212; experiment: minimum inhibitory concentration (MIC) against E. faecalis 29212; format: cell-based; parameters: minimum inhibitory concentration, E. faecalis 29212: unit not given here
Source text: (§1) In embodiments, the antibacterials of this invention may have useful activity against a variety of organisms. The in vitro activity of compounds of this invention may be assessed by standard testing procedures such as the determination of minimum inhibitory concentration (MIC) by agar dilution.
(§2) Compound A was broken down into smaller structural components and each fraction tested to understand the impact of certain components on the antibacterial properties of the compounds. Based on the understanding of compound A, the compounds (compounds 1 and 2) shown below, were tested further. […] A minimum inhibitory concentration is the lowest concentration of an antimicrobial that will inhibit the visible growth of a microorganism after overnight incubation.
(§3) In accordance with embodiments of the present invention, a variety of compounds have been prepared and tested, as indicated, in part, by the description above. The tables below provide minimum inhibitory concentration data for the identified compounds tested against various bacterial strains.
(§4) Table 1 lists the active compounds and the activity of those compounds for a limited quantity of bacteria. Blank spaces indicate low or no activity.

[2] = test system: E. faecal 201; experiment: minimum inhibitory concentration (MIC) against E. faecal 201; format: cell-based, E. faecalis
Source text: as §1, §2, §3, §4

[3] = test system: gram positive bacteria; experiment: inhibition of gram positive bacteria; format: cell-based; settings: result in words
Source text: (§5) In an embodiment, an initial antibacterial compound was provided and tested. Such compound is identified below as compound A. Compound A (below) is an inhibitor of gram positive bacteria.

[4] = test system: strains of Entercoccus; experiment: activity (minimum inhibitory concentration testing) against strains of Entercoccus; format: cell-based; settings: result in words; for activity as measured by minimum inhibitory concentration testing against several strains of Entercoccus: FIG. 1
Experimental: as §5, §2

[5] = test system: S. aureus ATCC 29213; experiment: minimum inhibitory concentration (MIC) against S. aureus ATCC 29213; format: cell-based, Staphylococcus aureus
Source text: as §1, §2, §3, §4

[6] = test system: S. aureus NRS100 (COL); experiment: minimum inhibitory concentration (MIC) against S. aureus NRS100 (COL); format: cell-based, Staphylococcus aureus
Source text: as §1, §2, §3

[7] = test system: S. aureus VAN1; experiment: minimum inhibitory concentration (MIC) against S. aureus VAN1; format: cell-based, Staphylococcus aureus
Source text: as §1, §2, §3

[8] = test system: S. aureus VAN2; experiment: minimum inhibitory concentration (MIC) against S. aureus VAN2; format: cell-based, Staphylococcus aureus
Source text: as §1, §2, §3

[9] = test system: E. faecalis 99; experiment: minimum inhibitory concentration (MIC) against E. faecalis 99; format: cell-based
Source text: as §1, §2, §3, §4

[10] = test system: several strains of Staphylococcus aureus; experiment: activity (minimum inhibitory concentration testing) against several strains of Staphylococcus aureus; format: cell-based; settings: FIG. 1, result in words
Experimental: as §2

[11] = test system: E. faecium 119-39A; experiment: minimum inhibitory concentration (MIC) against E. faecium 119-39A; format: cell-based
Source text: as §1, §2, §3

[12] = test system: E. faecium 106; experiment: minimum inhibitory concentration (MIC) against E. faecium 106; format: cell-based
Source text: as §1, §2, §3

SMILES	minimum inhibitory concentration, E. faecalis 29212 [1]	minimum inhibitory concentration, E. faecal 201 [2]	further results
N/C(=N\OC(=O)c1ccc(F)cc1)c1ccc(Oc2ccccc2)cc1 [Compound 29, (Z)-4-(phenoxy)-O-(4-fluorobenzoyl)benzamidoxime]	64	128	–
COc1ccc(/C(N)=N/OC(=O)c2ccc(F)cc2)cc1 [Compound 25, 4-fluorobenzoyl-O-4-methoxybenzamidoxime]	256	256	–
COc1ccc(-c2noc(-c3ccc(OCc4ccccc4)cc3)n2)cc1 [Compound 27, 5-(4-(benzyloxy)phenyl)-3-(4-methoxyphenyl)-1,2,4-oxadiazole]	–	256	–
Oc1ccc(-c2nc(-c3ccc(Oc4ccncc4)cc3)no2)cc1 [Compound 52, 4-(3-(4-(pyridin-4-yloxy)phenyl)-1,2,4-oxadiazol-5-yl)phenol]	–	32	–
Oc1ccc(-c2nc(-c3ccc(Oc4cccnc4)cc3)no2)cc1 [Compound 48, 4-(3-(4-(pyridin-3-yloxy)phenyl)-1,2,4-oxadiazol-5-yl)phenol]	–	32	–
Fc1ccc(-c2nc(-c3ccc(Oc4ccc(C(F)(F)F)cc4)cc3)no2)cc1 [Compound A, 5-(4-fluorophenyl)-3-(4-(4-(trifluoromethyl)phenoxy)phenyl)-1,2,4-oxadiazole]	125	128	inhibition of gram positive bacteria [3]: inhibitor; activity against some strains of Entercoccus ([4]; some strains of Entercoccus): shows activity
Oc1ccc(Oc2ccc(-c3noc(-c4ccc(F)cc4)n3)cc2)cc1 [Compound 36, 4-(4-(5-(4-fluorophenyl)-1,2,4-oxadiazol-3-yl)phenoxy)phenol]	64	32	–
Oc1ccc(-c2nc(-c3ccc(Oc4ccccc4)cc3)no2)cc1 [Compound 2, 4-(3-(4-phenoxyphenyl)-1,2,4-oxadiazol-5-yl)phenol]	4	4	minimum inhibitory concentration, S. aureus ATCC 29213 [5]: 2; minimum inhibitory concentration, S. aureus NRS100 (COL) [6]: 2; minimum inhibitory concentration, S. aureus VAN1 [7]: 2; activity as measured by minimum inhibitory concentration testing against several strains of Entercoccus [4]: good activity; minimum inhibitory concentration, S. aureus VAN2 [8]: 2; minimum inhibitory concentration, E. faecalis 99 [9]: 4; activity as measured by minimum inhibitory concentration testing against several strains of Staphylococcus aureus [10]: good activity; minimum inhibitory concentration, E. faecium 119-39A [11]: 4; minimum inhibitory concentration, E. faecium 106 [12]: 4
CC(=O)O/N=C(\N)c1ccc(Oc2ccc(C(F)(F)F)cc2)cc1 [Compound 7]	32	128	minimum inhibitory concentration, E. faecal 99 BH [9]: 512
c1ccc(COc2ccc(-c3nc(-c4ccc(Oc5ccncc5)cc4)no3)cc2)cc1 [Compound 51, 4-(4-(5-(4-(benzyloxy)phenyl)-1,2,4-oxadiazol-3-yl)phenoxy)pyridine]	–	64	–
c1ccc(COc2ccc(-c3nc(-c4ccc(Oc5ccccn5)cc4)no3)cc2)cc1 [Compound 43, 2-(4-(5-(4-(benzyloxy)phenyl)-1,2,4-oxadiazol-3-yl)phenoxy)pyridine]	–	64	–
Fc1ccc(-c2nc(-c3ccccc3)no2)cc1 [Compound 19, 5-(4-fluorophenyl)-3-phenyl-1,2,4-oxadiazole]	64	128	–
COc1ccc(-c2noc(-c3ccc(F)cc3)n2)cc1 [Compound 26, 5-(4-fluorophenyl)-3-(4-methoxyphenyl)-1,2,4-oxadiazole]	64	128	–
O=P(O)(O)Oc1ccc(Oc2ccc(-c3noc(-c4ccc(F)cc4)n3)cc2)cc1 [Compound 37, 4-(4-(5-(4-fluorophenyl)-1,2,4-oxadiazol-3-yl)phenoxy)phenyl dihydrogen phosphate]	500	32	minimum inhibitory concentration, E. faecalis 29212 BH [1]: 128; minimum inhibitory concentration, E. faecal 99 BH [9]: 500; minimum inhibitory concentration, E. faecal 201 BH [2]: 500
c1ccc(COc2ccc(-c3nc(-c4ccc(Oc5cccnc5)cc4)no3)cc2)cc1 [Compound 47, 3-(4-(5-(4-(benzyloxy)phenyl)-1,2,4-oxadiazol-3-yl)phenoxy)pyridine]	–	32	–
Oc1ccc(-c2nc(-c3ccc(Oc4ccccn4)cc3)no2)cc1 [Compound 44, 4-(3-(4-(pyridin-2-yloxy)phenyl)-1,2,4-oxadiazol-5-yl)phenol]	–	32	–
c1ccc(COc2ccc(-c3nc(-c4ccc(Oc5cnccn5)cc4)no3)cc2)cc1 [Compound 40, 2-(4-(5-(4-(benzyloxy)phenyl)-1,2,4-oxadiazol-3-yl)phenoxy)pyrazine]	–	64	–
N/C(=N\OC(=O)c1ccc([N+](=O)[O-])cc1)c1ccc(Oc2ccc(C(F)(F)F)cc2)cc1 [Compound 14, (Z)-4-(4-(trifluoromethyl)phenoxy)-O-(4-nitrobenzoyl)benzamidoxime]	128	32	–
O=[N+]([O-])c1ccc(-c2nc(-c3ccc(Oc4ccc(C(F)(F)F)cc4)cc3)no2)cc1 [Compound 15]	8	128	–
COc1ccc(-c2noc(-c3ccc(O)cc3)n2)cc1 [Compound 28, 4-(3-(4-methoxyphenyl)-1,2,4-oxadiazol-5-yl)phenol]	–	64	minimum inhibitory concentration, S. aureus ATCC 29213 [5]: 32
Oc1ccc(-c2nc(-c3ccc(Oc4ccc(C(F)(F)F)cc4)cc3)no2)cc1 [Compound 1, 4-(3-(4-(4-(trifluoromethyl)phenoxy)phenyl)-1,2,4-oxadiazol-5-yl)phenol]	2	2	minimum inhibitory concentration, S. aureus ATCC 29213 [5]: 2; minimum inhibitory concentration, S. aureus NRS100 (COL) [6]: 2; minimum inhibitory concentration, E. faecalis 29212 BH [1]: 16; minimum inhibitory concentration, S. aureus VAN1 [7]: 2; activity as measured by minimum inhibitory concentration testing against several strains of Entercoccus [4]: good activity; minimum inhibitory concentration, S. aureus VAN2 [8]: 2; minimum inhibitory concentration, E. faecal 99 BH [9]: 8; minimum inhibitory concentration, E. faecalis 99 [9]: 2; minimum inhibitory concentration, E. faecal 201 BH [2]: 16; activity as measured by minimum inhibitory concentration testing against several strains of Staphylococcus aureus [10]: good activity; minimum inhibitory concentration, E. faecium 119-39A [11]: 2; minimum inhibitory concentration, E. faecium 119-39A BH ([11]; E. faecium 119-39A BH): 8; minimum inhibitory concentration, E. faecium 106 [12]: 2; minimum inhibitory concentration, E. faecium 106 BH ([12]; E. faecium 106 BH): 4
